Laboratory results: patent publication US11779592B2, “Inhibition of NGLY1 for the treatment of cancer” (University of North Texas Health Science Center, priority 2017, dated 2023)
Residues, ends and D or L forms follow the SMILES beside them. *: point of attachment. Cbz = O=C(OCc1ccccc1)*; CH2F = FC*

Tests used:
human NGLY1 = biological target: T1, human NGLY1 (Homo sapiens, UniProt Q96IV0); assay: RNase B deglycosylation assay with recombinant human NGLY1; assay type: biochemical
T1 construct: host or cells: HEK293T
T1 sequence (Q96IV0 1-654): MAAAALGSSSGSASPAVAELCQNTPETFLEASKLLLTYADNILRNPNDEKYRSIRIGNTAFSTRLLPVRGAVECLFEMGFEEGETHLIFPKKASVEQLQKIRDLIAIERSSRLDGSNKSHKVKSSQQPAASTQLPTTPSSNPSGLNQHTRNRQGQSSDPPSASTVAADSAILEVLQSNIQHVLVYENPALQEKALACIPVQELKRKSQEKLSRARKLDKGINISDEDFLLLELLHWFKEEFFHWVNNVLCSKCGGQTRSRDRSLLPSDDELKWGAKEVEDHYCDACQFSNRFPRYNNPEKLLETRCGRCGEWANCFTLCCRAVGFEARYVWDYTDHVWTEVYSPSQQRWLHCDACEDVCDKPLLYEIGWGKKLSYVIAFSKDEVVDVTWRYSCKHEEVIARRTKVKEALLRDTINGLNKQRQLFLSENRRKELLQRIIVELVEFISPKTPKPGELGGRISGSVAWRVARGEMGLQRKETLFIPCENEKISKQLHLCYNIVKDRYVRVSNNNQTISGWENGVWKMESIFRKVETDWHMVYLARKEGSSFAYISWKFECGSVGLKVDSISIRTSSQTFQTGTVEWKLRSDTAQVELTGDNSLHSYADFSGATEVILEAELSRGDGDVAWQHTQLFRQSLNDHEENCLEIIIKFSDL
Description: The computational homology model of human NGLY1 core domain was generated and used for studying interactions between NGLY1 and novel small molecules that are designed to covalently modified and inactivate the catalytic site of NGLY1. (FIG. 15A) The most favorable binding pose of Z-VAD-fmk, a short peptide with NGLY1 and caspase inhibitory activity, in the human NGLY1 homology model superimposed to the conformation of Z-VAD-fmk bound to mouse NGLY1 in a co-crystalized structure. […] RNase B (g): glycosylated RNase B. RNase B (dg): deglycosylated RNase B. Veh: vehicle (DMSO) treatment. M: molecular weight marker. Lower panel: the deglycosylation of NFE2L1 altered by the treatment of 20 μM Z-VAD-fmk and 200 μM NM-350 in bortezomib-treated HEK293T cells. The cells were pretreated with vehicle (DMSO), Z-VAD-fmk and NM-350 for 24 hours and subsequently subjected to concomitant treatment with 10 μM bortezomib for an additional 16 hours. Cell lysates reacted with and without 500 units of PNGase F for 2 hours were analyzed using Western blotting. Top arrowhead in lanes 2 and 3: fully glycosylated NFE2L1. Top arrowhead in lane 1: partially glycosylated NFE2L1. Bottom arrowhead: deglycosylated and truncated NFE2L1. […] The cell viability curve of combinatorial treatment was plotted according to the doses of dacarbazine used in the treatment. […] The cell viability curve of combinatorial treatment was plotted according to the doses of bortezomib used in the treatment. All the data of cell viability tests were presented as mean±standard deviation (n=3).
FLAG-tagged human NGLY1 was overexpressed by the transduction of the pLenti expression vector that carries a Myc-DDK-tagged-human NGLY1 open reading frame in HEK293T cells. Anti-FLAG magnetic beads (OriGene Technologies, Rockville, MD) were used to react with the lysate of HEK293T cells overnight at 4° C. in the presence of pan-protease inhibitors to purify the FLAG-tagged NGLY1. The magnetic beads were thoroughly washed using 0.5% Tween 20 in PBS for three times to minimize non-specific binding. The enrichment of recombinant human NGLY1 was checked by Western blotting of NGLY1 in the pull-down fraction. To perform RNase B deglycosylation assays, purified human NGLY1 on an equal volume of magnetic beads was incubated with PBS containing each of the indicated small molecules and control vehicle (DMSO) at 37° C. for 2 hours. The magnetic beads were then collected and resuspended in PBS containing 0.05% NP-40. Each magnetic bead suspension was mixed with 1 ug RNase B (Millipore Sigma, St. Louis, MO) that was pre-denatured using 5 mM DTT in the presence of 8M urea at 42° C. for 1 hour followed by the treatment of 25 mM iodoacetamide at room temperature for 1 hour and buffer exchange into PBS using Zeba 7K MWCO spin columns (Thermo Fisher Scientific, Carlsbad, CA). The mixtures of magnetic bead suspension and denatured RNase B were left at 37° C. for 16 hours. The proteins in each mixture were resolved by SDS-PAGE and visualized using SYPRO Ruby gel stain (Thermo Fisher Scientific, Carlsbad, CA).

NFE2L1 = assay: Deglycosylation of NFE2L1 in bortezomib-treated HEK293T cells (Western blotting); assay type: cell-based; conditions: 24 hours pretreatment then 10 μM bortezomib 16 hours
Description: The computational homology model of human NGLY1 core domain was generated and used for studying interactions between NGLY1 and novel small molecules that are designed to covalently modified and inactivate the catalytic site of NGLY1. (FIG. 15A) The most favorable binding pose of Z-VAD-fmk, a short peptide with NGLY1 and caspase inhibitory activity, in the human NGLY1 homology model superimposed to the conformation of Z-VAD-fmk bound to mouse NGLY1 in a co-crystalized structure. […] RNase B (g): glycosylated RNase B. RNase B (dg): deglycosylated RNase B. Veh: vehicle (DMSO) treatment. M: molecular weight marker. Lower panel: the deglycosylation of NFE2L1 altered by the treatment of 20 μM Z-VAD-fmk and 200 μM NM-350 in bortezomib-treated HEK293T cells. The cells were pretreated with vehicle (DMSO), Z-VAD-fmk and NM-350 for 24 hours and subsequently subjected to concomitant treatment with 10 μM bortezomib for an additional 16 hours. Cell lysates reacted with and without 500 units of PNGase F for 2 hours were analyzed using Western blotting. Top arrowhead in lanes 2 and 3: fully glycosylated NFE2L1. Top arrowhead in lane 1: partially glycosylated NFE2L1. Bottom arrowhead: deglycosylated and truncated NFE2L1. […] The cell viability curve of combinatorial treatment was plotted according to the doses of dacarbazine used in the treatment. […]

SK-MEL-2 cells = assay: Cell viability test (MTT) in SK-MEL-2 cells; assay type: cell-based, human
Method: (§1) Despite the frequent failure of chemotherapy in patients with melanoma, chemotherapy remains a frontline approach for treatment, especially in many patients who cannot afford immunotherapy or targeted therapy. […] Identifying novel approaches to enhance the efficacy of chemotherapy and targeted therapy agents in melanoma will greatly benefit many cancer patients. […] The IC50 of each drug treatment in each cell clone was calculated using CalcuSyn 2.0.
(§2) The dose effect of dox-induced expression of NGLY1 shRNA in each cell clone was also determined. The IC50 of each drug treatment in each cell clone was calculated using CalcuSyn 2.0. To determine the interaction between NGLY1 knockdown and each anticancer agent, cells were exposed to four-dose combinations of dox and an anticancer agent at a fixed dose ratio. The combination index (CI) value was calculated using CalcuSyn 2.0. CI values of less than 1 are considered a synergistic interaction. […]
(§3) Cells were seeded into 96-well plates (2,500-5,000 cells/well, depending on cell types), incubated overnight, and treated as indicated. […] Reduced MTT was solubilized in DMSO for determination of absorbance at 570 nm. Absorbance of reduced MTS was directly measured in the reaction medium at 490 nm. The relative cell viability in each treatment condition was calculated based on absorbance values.

MALME3M cells = assay type: cell-based; conditions: 20 μM, 72-hour treatment
Method: as §1, §2, §3

UACC257 cells = assay: Cell viability test (MTT) in UACC257 cells; assay type: cell-based, human; conditions: 20 μM, 72-hour treatment
Method: as §1, §2, §3

HepG2 liver cancer cells = assay: Cell morphology of HepG2 cells with NGLY1 knockdown; assay type: cell-based
[1] = tested on: U-251MG glioblastoma cells; assay: Cell morphology of U-251MG cells with NGLY1 knockdown; assay type: cell-based
NGLY1 = NGLY1 expression in stable clones of melanoma cells (immunoblotting); assay type: cell-based, human; conditions: stable clones of MALME3M, UACC257 and SK-MEL-2 cells, 48-hour treatment of dox
Description: These NGLY1-targeting shRNA sequences and a scrambled (non-targeting) shRNA sequence were cloned into doxycycline (dox)-inducible, polycistronic green fluorescence protein (GFP)-shRNA expression constructs (a pZIP inducible lentiviral vector, TransOMIC). Stable clones have been generated with the shRNA expression constructs in multiple human melanoma cell lines, including MALME3M, UACC257, SK-MEL-2, and COLO829 melanoma cells. […] Similar knockdown effects were found in the stable clones of other melanoma cells with this particular NGLY1 shRNA sequence. […] Similar to human normal fibroblasts, normal melanocytes (FIG. 5D) and keratinocytes appeared to well tolerate NGLY1 knockdown and show no sign of increased cell death. In addition, SK-MEL-2, MALME3M cells that express inducible NGLY1 shRNA presented significant apoptosis, compared to their scrambled RNA-expressing counterparts. The expression of exogenous human NGLY1 in melanoma cells attenuated NGLY1-targeting shRNA-induced apoptosis (FIG. 5E).
The knockdown of NGLY1 expression in melanoma cells was achieved by the transduction of pZIP-TRE3GS lentiviral expression vectors that carry two independent shRNA sequences (Below; TransOMIC Technologies, Huntsville, AL). […] The expression of the shRNA sequences and an open reading frame of the ZsGreen reporter is driven by the TRE3GS doxycycline-inducible promoter. […]

[2] = 2-hour reaction with human NGLY1

C=CS(=O)(=O)N[C@@H](CC(=O)N[C@@H]1O[C@H](COC(C)=O)[C@@H](OC(C)=O)[C@H](OC(C)=O)[C@H]1NC(C)=O)C(=O)NCCC [NM-348, (2R,3S,4R,5R,6R)-5-Acetamido-2-(acetoxymethyl)-6-((S)-4-oxo-4-(propylamino)-3-(vinylsulfonamido)butanamido)tetrahydro-2H-pyran-3,4-diyl diacetate]
NGLY1 activity in the deglycosylation of denatured RNase B (human NGLY1; [2]): suppressed its activity

COC(=O)C[C@H](NC(=O)[C@H](C)NC(=O)[C@@H](NC(=O)OCc1ccccc1)C(C)C)C(=O)CF [Z-VAD-fmk, reference compound] (Cbz-Val-Ala-Asp(OMe)-CH2F)
deglycosylation of NFE2L1 (NFE2L1; 20 μM): altered
NGLY1 activity in the deglycosylation of denatured RNase B (human NGLY1; 2-hour reaction, 20 μM): suppressed its activity

Cc1ccc(S(=O)(=O)/C=C/C(=O)N[C@@H](CCc2ccccc2)C(=O)NCCC(C)C)cc1 [WRR139, reference compound]
NGLY1 activity in the deglycosylation of denatured RNase B (human NGLY1; 2-hour reaction, 5 μM): suppressed its activity

CCCNC(=O)[C@H](CC(=O)N[C@@H]1O[C@H](COC(C)=O)[C@@H](OC(C)=O)[C@H](OC(C)=O)[C@H]1NC(C)=O)NC(=O)/C=C/CN(C)C [NM-354, (2R,3S,4R,5R,6R)-5-Acetamido-2-(acetoxymethyl)-6-((S)-3-((E)-4-(dimethylamino)but-2-enamido)-4-oxo-4-(propylamino)butanamido)tetrahydro-2H-pyran-3,4-diyl diacetate]
NGLY1 activity in the deglycosylation of denatured RNase B (human NGLY1; [2]): suppressed its activity

CCCNC(=O)[C@H](CC(=O)N[C@@H]1O[C@H](COC(C)=O)[C@@H](OC(C)=O)[C@H](OC(C)=O)[C@H]1NC(C)=O)NC(=O)CCl [NM-350, (2R,3S,4R,5R,6R)-5-Acetamido-2-(acetoxymethyl)-6-((S)-3-(2-chloroacetamido)-4-oxo-4-(propylamino)butanamido)tetrahydro-2H-pyran-3,4-diyl diacetate]
deglycosylation of NFE2L1 (NFE2L1; 200 μM): clear retention of N-glycans on NFE2L1
suppression of cell viability in combination (SK-MEL-2 cells; in combination with bortezomib): synergistically suppressed the viability
NGLY1 activity in the deglycosylation of denatured RNase B (human NGLY1; [2]): suppressed its activity

N.N.[Cl][Pt][Cl] [cisplatin]
growth and cell death (MALME3M cells): moderate growth inhibition without increase of cell death
growth and cell death (UACC257 cells): moderate growth inhibition without increase of cell death

C=CC(=O)N[C@@H](CC(=O)N[C@@H]1O[C@H](COC(C)=O)[C@@H](OC(C)=O)[C@H](OC(C)=O)[C@H]1NC(C)=O)C(=O)NCCC [NM-322, (2R,3S,4R,5R,6R)-5-acetamido-2-(acetoxymethyl)-6-((S)-3-acrylamido-4-oxo-4-(propylamino)butanamido)tetrahydro-2H-pyran-3,4-diyl diacetate]
suppression of cell viability in combination (SK-MEL-2 cells; in combination with dacarbazine): synergistic effect
NGLY1 activity in the deglycosylation of denatured RNase B (human NGLY1; [2]): suppressed its activity

B1: NGLY1-shRNA647: NGLY1-targeting shRNA sequence (SEQ ID NO: 6), dox-inducible lentiviral vector (nucleic acid)
DNA: AAAGCAUUACUUCGAGACACUAUAGUGAAGCCACAGAUGUAUAGUGUCUCGAAGUAAUGCUUCU
cell morphology (HepG2 liver cancer cells): morphology of apoptosis
cell morphology [1]: morphology of apoptosis
expression of NGLY1 (NGLY1): largely suppressed
